# Source: patent US10894807B2 (Siemens Medical Solutions USA, Inc., priority 2011, dated 2021)
# Target: human PSMA (Homo sapiens (Human), UniProt Q04609)
# Assay: Enzymatic assay for in vitro evaluation of PSMA inhibitors (fluorescent assay of PSMA activity, NAAG substrate, OPA detection of glutamate)
# Assay type: biochemical
# Conditions: not given
# Sequence of human PSMA (Q04609 whole entry): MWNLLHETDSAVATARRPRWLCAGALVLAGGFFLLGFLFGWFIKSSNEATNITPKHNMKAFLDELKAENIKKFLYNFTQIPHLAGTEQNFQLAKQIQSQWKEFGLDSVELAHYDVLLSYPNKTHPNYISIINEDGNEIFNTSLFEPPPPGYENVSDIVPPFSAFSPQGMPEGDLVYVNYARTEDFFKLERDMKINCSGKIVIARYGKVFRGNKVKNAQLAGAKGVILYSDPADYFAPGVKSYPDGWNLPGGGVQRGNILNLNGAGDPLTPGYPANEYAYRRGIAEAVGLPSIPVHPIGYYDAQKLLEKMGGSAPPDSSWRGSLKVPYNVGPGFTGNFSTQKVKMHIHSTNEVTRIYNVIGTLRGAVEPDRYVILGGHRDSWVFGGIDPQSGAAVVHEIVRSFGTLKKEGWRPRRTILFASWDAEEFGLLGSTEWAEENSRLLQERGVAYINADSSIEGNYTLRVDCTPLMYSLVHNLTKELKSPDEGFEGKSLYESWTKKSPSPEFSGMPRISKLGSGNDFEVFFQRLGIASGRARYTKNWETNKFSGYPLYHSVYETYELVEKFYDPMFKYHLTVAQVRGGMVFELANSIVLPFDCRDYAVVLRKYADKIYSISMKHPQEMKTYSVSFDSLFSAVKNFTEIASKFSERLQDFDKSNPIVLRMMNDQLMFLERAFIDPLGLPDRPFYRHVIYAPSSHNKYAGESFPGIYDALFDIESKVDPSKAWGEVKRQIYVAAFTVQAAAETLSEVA
row,SMILES,Ki [nM]
1,"CCC1C(=O)N([C@@H](CCCCNC(=O)OCc2ccccc2)C(=O)O)C(=O)N([C@@H](CCC(=O)O)C(=O)O)C1=O (stereo partly drawn) [P078, (2S)-2-(3-((S)-5-(Benzyloxycarbonylamino)-1-carboxypentyl)-5-ethyl-2,4,6-trioxotetrahydropyrimidin-1(2H)-yl)pentanedioic Acid]",> 312
2,"CCC1(CC)C(=O)N([C@@H](CCCCNC(=O)OCc2ccccc2)C(=O)O)C(=O)N([C@@H](CCC(=O)O)C(=O)O)C1=O [P079, (S)-2-(3-((S)-5-(Benzyloxycarbonylamino)-1-carboxypentyl)-5,5-diethyl-2,4,6-trioxotetrahydropyrimidin-1(2H)-yl)pentanedioic Acid]",313
3,"O=NC1C(=O)N([C@@H](CCCCNC(=O)OCc2ccccc2)C(=O)O)C(=O)N([C@@H](CCC(=O)O)C(=O)O)C1=O (stereo partly drawn) [P088, (2S)-2-(3-((S)-5-(Benzyloxycarbonylamino)-1-carboxypentyl)-5-nitroso-2,4,6-trioxotetrahydropyrimidin-1(2H)-yl)pentanedioic Acid]",> 407
4,"O=C(O)CC[C@@H](C(=O)O)N1C(=O)C([N+](=O)[O-])C(=O)N([C@@H](CCCCNC(=O)OCc2ccc([N+](=O)[O-])cc2)C(=O)O)C1=O (stereo partly drawn) [P089, (2S)-2-(3-((S)-1-Carboxy-5-((((4-nitrobenzyl)oxy)carbonyl)amino)pentyl)-5-nitro-2,4,6-trioxotetrahydropyrimidin-1(2H)-yl)pentanedioic Acid]",> 407
5,"O=C(O)CC[C@H](NC(=O)CN(O)C(=O)CCCc1ccc(-n2cc(CCCF)nn2)cc1)C(=O)O [P090, (S)-2-(2-(4-(4-(4-(3-Fluoropropyl)-1H-1,2,3-triazol-1-yl)phenyl)-N-hydroxybutanamido)acetamido)pentanedioic Acid]",313
6,"O=C(O)CC[C@H](NC(=O)N(O)[C@@H](CCCCNC(=O)c1ccc(-n2cc(CCCF)nn2)cc1)C(=O)O)C(=O)O [P092, (S)-2-(3-((S)-1-Carboxy-5-(4-(4-(3-fluoropropyl)-1H-1,2,3-triazol-1-yl)benzamido)pentyl)-3-hydroxyureido)pentanedioic Acid]",31

# Same assay, conditions: compound at 10 μM
row,SMILES,PSMA Blkg % (10 μM) [%]
1,"CN(C(=O)N[C@@H](CCC(=O)O)C(=O)O)[C@@H](CCCCNC(=O)CCCCCn1cc(CCCF)nn1)C(=O)O [P080, (S)-2-(3-((S)-1-Carboxy-5-(6-(4-(3-fluoropropyl)-1H-1,2,3-triazol-1-yl)-hexamido)pentyl)-3-methylureido)pentanedioic Acid]",90
2,"O=C(O)CCC(NC(=O)N1CC(NC(=O)CCCCn2cc(CCCF)nn2)C[C@H]1C(=O)O)C(=O)O (stereo partly drawn) [P081, 2-((2S)-2-Carboxy-4-(5-(4-(3-fluoropropyl)-1H-1,2,3-triazol-1-yl)pentanamido)pyrrolidine-1-carboxamido)pentanedioic Acid]",25
3,"C[C@H](NC(=O)N[C@@H](CCC(=O)O)C(=O)O)C(=O)NCCF [P082, (S)-2-(3-((S)-1-((2-Fluoroethyl)amino)-1-oxopropan-2-yl)ureido)pentanedioic Acid]",4
4,"CN(CCCC[C@H](NC(=O)N[C@@H](CCC(=O)O)C(=O)O)C(=O)O)C(=O)OCc1ccccc1 [P083, (9S,13S)-4-Methyl-3,11-dioxo-1-phenyl-2-oxa-4,10,12-triazapentadecane-9,13,15-tricarboxylic Acid]",100
5,"O=C(O)CC[C@@H](C(=O)O)n1c(=O)[nH]c(=O)n([C@@H](CCCCNC(=O)OCc2ccccc2)C(=O)O)c1=O [P084, (S)-2-(3-((S)-5-(Benzyloxycarbonylamino)-1-carboxypentyl)-2,4,6-trioxo-1,3,5-triazinan-1-yl)pentanedioic Acid]",19
6,"Cn1c(=O)n([C@@H](CCCCNC(=O)OCc2ccccc2)C(=O)O)c(=O)n([C@@H](CCC(=O)O)C(=O)O)c1=O [P085, (S)-2-(3-((S)-5-(Benzyloxycarbonylamino)-1-carboxypentyl)-5-methyl-2,4,6-trioxo-1,3,5-triazinan-1-yl)pentanedioic Acid]",0
7,"CN1C(=O)N(C(CCC(=O)O)C(=O)O)C(=O)[C@@H]1CCCCNC(=O)c1ccc(N=[N+]=[N-])cc1 (stereo partly drawn) [P086, 2-((S)-4-(4-(4-Azidobenzamido)butyl)-3-methyl-2,5-dioxoimidazolidin-1-yl)-pentanedioic Acid]",25
8,"Cc1nc(N[C@@H](CCC(=O)O)C(=O)O)sc1C(=O)O [P087, (S)-2-((5-Carboxy-4-methylthiazol-2-yl)amino)pentanedioic Acid]",3
9,"O=C(O)CC[C@H](NC(=O)CN(O)C(=O)CCCc1ccc(-n2cc(CCCF)nn2)cc1)C(=O)O [P090, (S)-2-(2-(4-(4-(4-(3-Fluoropropyl)-1H-1,2,3-triazol-1-yl)phenyl)-N-hydroxybutanamido)acetamido)pentanedioic Acid]",85
10,"NC1C(=O)N([C@@H](CCCCNC(=O)OCc2ccccc2)C(=O)O)C(=O)N([C@@H](CCC(=O)O)C(=O)O)C1=O (stereo partly drawn) [P091, (2S)-2-(5-Amino-3-((S)-5-(benzyloxycarbonylamino)-1-carboxypentyl)-2,4,6-trioxotetrahydropyrimidin-1(2H)-yl)pentanedioic Acid]",23
11,"O=C(O)CC[C@H](NC(=O)N(O)[C@@H](CCCCNC(=O)c1ccc(-n2cc(CCCF)nn2)cc1)C(=O)O)C(=O)O [P092, (S)-2-(3-((S)-1-Carboxy-5-(4-(4-(3-fluoropropyl)-1H-1,2,3-triazol-1-yl)benzamido)pentyl)-3-hydroxyureido)pentanedioic Acid]",99
12,"O=C(O)CC[C@H](NC(=O)CN(O)C(=O)CCCCn1cc(CCCF)nn1)C(=O)O [P093, (S)-2-(2-(5-(4-(3-Fluoropropyl)-1H-1,2,3-triazol-1-yl)-N-hydroxypentanamido)-acetamido)pentanedioic Acid]",16
13,"O=C(O)CC[C@@H](C(=O)O)N1C(=O)CC(=O)N([C@@H](CCCCNC(=O)CCCc2ccc(-n3cc(CCCF)nn3)cc2)C(=O)O)C1=O [P094, (S)-2-(3-((S)-1-Carboxy-5-(4-(4-(4-(3-fluoropropyl)-1H-1,2,3-triazol-1-yl)phenyl)butanamido)pentyl)-2,4,6-trioxotetrahydropyrimidin-(2H)-yl)pentanedioic Acid]",7
14,"O=C(O)CC[C@@H](C(=O)O)N1C(=O)CC(=O)N(Cc2ccccc2)C1=O [P095, (S)-2-(3-Benzyl-2,4,6-trioxotetrahydropyrimidin-1(2H)-yl)pentanedioic Acid]",4
15,"O=C(O)CC[C@@H](C(=O)O)N1C(=O)/C(=C(/O)Cn2cc(CCCF)nn2)C(=O)N(Cc2ccccc2)C1=O [P096, (S,E)-2-(3-Benzyl-5-(2-(4-(3-fluoropropyl)-1H-1,2,3-triazol-1-yl)-1-hydroxyethylidene)-2,4,6-trioxotetrahydropyrimidin-1(2H)-yl)pentanedioic Acid]",3
16,"O=C(O)CCC(NC(=O)C(=O)N[C@@H](CCC(=O)O)C(=O)O)C(=O)O (stereo partly drawn) [P098, (2′S)-2,2′-(Oxalylbis(azanediyl))dipentanedioic Acid]",23
17,"O=C(O)CCC(NS(=O)(=O)N[C@@H](CCC(=O)O)C(=O)O)C(=O)O (stereo partly drawn) [P099, (2S)-2,2′-(Sulfonylbis(azanediyl))dipentanedioic Acid]",0
18,"O=C(O)CC[C@H](NC(=O)NNC(=O)CCCc1ccc(-n2cc(CCCF)nn2)cc1)C(=O)O [P100, (S)-2-(2-(4-(4-(4-(3-Fluoropropyl)-1H-1,2,3-triazol-1-yl)phenyl)butanoyl)-hydrazinecarboxamido)pentanedioic Acid]",3
19,"O=C(O)CC[C@@H](C(=O)O)N1C(=O)/C(=C(\O)CCCc2ccc(-n3cc(CCCF)nn3)cc2)C(=O)N(Cc2ccccc2)C1=O [P101, (S,Z)-2-(3-Benzyl-5-(4-(4-(4-(3-fluoropropyl)-1H-1,2,3-triazol-1-yl)phenyl)-1-hydroxybutylidene)-2,4,6-trioxotetrahydropyrimidin-1(2H)-yl)pentanedioic Acid]",0
